# Patent US20250025445A1, “METHOD OF CARDIOPROTECTION” (Race Oncology LTD., priority 2021, published 2025)
# Where two headings read alike, the source gives them in different places.
# Key:
# MCF7 breast cancer cells = test: MCF7 breast cancer cell viability (CellTiter-Glo); type: cell-based, human; conditions: FTO inhibitor up to 10 μM with 1 μM doxorubicin; up to 72 hours; FIG. 13
# Experimental: Human breast adenocarcinoma (MCF7) cells were purchased from In Vitro Technologies (Victoria, Australia) and cultured according to manufacturer's recommendations using MCF7 growth media, Low glucose Dulbecco's Modified Eagle's medium (DMEM; Sigma-Aldrich, Australia) supplemented with 10% (v/v) foetal calf serum (Sigma-Aldrich) and 1% (v/v) Penicillin-Streptomycin (Sigma-Aldrich). Briefly, 1×10^6 MCF7 were seeded and grown in Corning® T75 flasks (Sigma-Aldrich) in an incubator at 37° C. under 5% CO2 conditions. At 80-90% confluency, MCF7 were washed with Dulbecco's Phosphate Buffered Saline (Sigma-Aldrich) for 30s at room temperature and followed by incubation with Trypsin-EDTA (Sigma-Aldrich) for 5 mins at 37° C. under 5% CO2 conditions. Trypsin solution was then neutralised with 1:1 volume of MCF7 growth media. The cell suspensions were then collected into Corning® 50 mL centrifuge tubes (Sigma-Aldrich) and centrifuged at 300×g for 10 mins at room temperature. The resulting supernatants were discarded and MCF7 pellets were resuspended with 5-10 mL of pre-warmed MCF7 growth media. Total viable cells were enumerated with Invitrogen™ Countess Cell Counter (Thermo Fisher Scientific, New South Wales, Australia) and 9×10^4 live MCF7 were seeded in triplicate into Corning® 96-well white polystyrene microplate (Sigma).
# (§1) Dox, Dauno and Epi, were dissolved in sterile water to make a stock concentration of 20 mM, respectively, while Tz was dissolved in sterile PBS to a stock concentration of 100 μM. […] The concentrations were as follows 0 nM, 15.62 nM, 62.5 nM, 250 nM, 500 nM, 1 μM, 5 μM, and 10 μM. […] Vehicle controls were incubated with media supplemented with either sterile water or DMSO. […] This was repeated at 48 hours and 72 hours. […] Both FB23/2 and brequinar (MedChemExpress) were dissolved in dimethyl sulfoxide (DMSO; Sigma-Aldrich) to make a stock concentration of 40 mM and 20 mM respectively.
# [1] = system: H929 multiple myeloma cells; test: H929 multiple myeloma cell viability (CellTiter-Glo); type: cell-based, human; conditions: FTO inhibitor up to 10 μM with 1 μM doxorubicin; up to 72 hours
# Experimental: Human multiple myeloma NCI-H929 cells were cultured using RPMI-1640 growth media (Sigma-Aldrich), supplemented with 2 mM L-glutamine (Thermo Fisher Scientific), 10% (v/v) foetal calf serum (Sigma-Aldrich) and 0.05 mM 2-mercaptoethanol (Sigma-Aldrich). Briefly, 0.5×10^6 H929 were seeded and grown in Corning® T75 flasks (Sigma-Aldrich) in an incubator at 37° C. under 5% CO2 conditions. At 80-90% confluency, the cell suspension was then collected into Corning® 50 mL centrifuge tubes (Sigma-Aldrich) and centrifuged at 300×g for 10 mins at room temperature. The resulting supernatant were discarded and H929 pellet was resuspended with 5-10 mL of pre-warmed H929 growth media. Total viable cells were enumerated with Invitrogen™ Countess Cell Counter (Thermo Fisher Scientific, New South Wales, Australia) and 1×10^4 live H929 were seeded in triplicate into Corning® 96-well white polystyrene microplate (Sigma). […] The concentrations were as follows 0 nM, 15.62 nM, 62.5 nM, 250 nM, 500 nM, 1 μM, 5 μM, and 10 μM. […] Vehicle controls were incubated with media supplemented with either sterile water or DMSO. […] This was repeated at 48 hours and 72 hours. […] Both FB23/2 and brequinar (MedChemExpress) were dissolved in dimethyl sulfoxide (DMSO; […]
# [2] = system: Primary Human Cardiac Myocytes (HCMs); test: Primary human cardiomyocyte cell viability (CellTiter-Glo); type: cell-based; conditions: up to 72 hours; for mitigation of toxicity of carfilzomib towards primary HCMs: FTO inhibitor 0-10 μM with 1 μM carfilzomib; for mitigation of toxicity of doxorubicin towards primary HCMs: FTO inhibitor 0-10 μM with 1 μM doxorubicin
# Experimental: Primary Human Cardiac Myocytes (HCMs) were purchased from PromoCell® (Heidelberg, Germany) and cultured according to manufacturer's recommendations using PromoCell® Myocyte growth media (5% [v/v] foetal calf serum, 0.5 ng/ml recombinant human epidermal growth factor, 2 ng/ml recombinant human basic fibroblast growth factor, 5 μg/ml recombinant human insulin) supplemented with 1% [v/v] Penicillin-Streptomycin [Sigma-Aldrich]). Briefly, 1×10^6 HCMs were seeded and grown in Corning® T75 flasks (Sigma-Aldrich, New South Wales, Australia) in an incubator at 37° C. under 5% CO2 conditions. At 80-90% confluency, HCMs were gently detached using the DetachKit (PromoCell®), collected into Corning® 50 mL centrifuge tubes (Sigma-Aldrich), and centrifuged at 300×g for 10 mins at room temperature. The resulting supernatant were discarded and HCM pellet was resuspended with 5-10 mL of pre-warmed Myocyte Growth Medium. Total viable cells were enumerated with Invitrogen™ Countess Cell Counter (Thermo Fisher Scientific, New South Wales, Australia) and 1×10^5 live HCMs were seeded in triplicate into Corning® 96-well white polystyrene microplate (Sigma).
# as §1
# [3] = cited from earlier work
# [4] = Doxorubicin cardiotoxicity in mice: blood tests; conditions: doxorubicin 5 mg/kg alone
# Description: (§2) In particular, well established cardiotoxicity markers, including left ventricular fractional shortening, heart E/A ratio, left ventricular diastolic function, left ventricular dilatation, cardiac output, plasma triglyceride levels, plasma creatine kinase-MB (CK-MB), plasma LDH (lactate dehydrogenase) and plasma brain natriuretic peptide (BNP) were monitored over a period of up to 42 days following the start of treatments delivered weekly, four times (and therefore final treatment on day 21).
# (§3) Treatments were delivered to mice intravenously on days 0, 7, 14 and 21. Mice underwent echocardiography measurements at days 0, 21 and 42 to determine LVEF, FS, EDV, ESV, CO, E wave, A wave, E′, E/A, and E/E′, and blood samples were taken at days 0, 21 and 42 to assay for cardiac troponin I levels, BNP levels, CK, LDH levels and triglycerides.
# [5] = cited from earlier work; remark: listed apart in the source
# [6] = doxorubicin 5 mg/kg alone
# Description: as §2, §3
# [7] = i.v. weekly x4, day 21, worsening by day 42
# [8] = 42 days after start of treatment
smiles,measurement,setting,value
Cc1noc(C)c1-c1cc(Cl)c(Nc2ccccc2C(=O)NO)c(Cl)c1 [FB23/2],increased loss of viability of MCF7 cells cultured with doxorubicin,MCF7 breast cancer cells,"neither brequinar nor FB23/2, at concentrations of up to 10 μM, resulted in any increased loss of viability"
same,increased loss of viability of H929 cells cultured with doxorubicin,[1],"neither brequinar nor FB23/2, at concentrations of up to 10 μM, resulted in any increased loss of viability"
same,mitigation of toxicity of carfilzomib towards primary HCMs,[2],did not mitigate the toxicity
same,mitigation of toxicity of doxorubicin towards primary HCMs,[2],did not mitigate the toxicity
Cc1c(-c2ccc(-c3ccccc3F)cc2)nc2ccc(F)cc2c1C(=O)O [brequinar],increased loss of viability of MCF7 cells cultured with doxorubicin,MCF7 breast cancer cells,"neither brequinar nor FB23/2, at concentrations of up to 10 μM, resulted in any increased loss of viability"
same,increased loss of viability of H929 cells cultured with doxorubicin,[1],"neither brequinar nor FB23/2, at concentrations of up to 10 μM, resulted in any increased loss of viability"
same,mitigation of toxicity of carfilzomib towards primary HCMs,[2],did not mitigate the toxicity
same,mitigation of toxicity of doxorubicin towards primary HCMs,[2],did not mitigate the toxicity
CC(C)C[C@H](NC(=O)[C@H](CCc1ccccc1)NC(=O)CN1CCOCC1)C(=O)N[C@@H](Cc1ccccc1)C(=O)N[C@@H](CC(C)C)C(=O)[C@@]1(C)CO1 [carfilzomib],patients with cardiotoxicity,[3],up to 10%
COc1cccc2c1C(=O)c1c(O)c3c(c(O)c1C2=O)C[C@@](O)(C(=O)CO)C[C@@H]3O[C@H]1C[C@H](N)[C@H](O)[C@H](C)O1 [doxorubicin],plasma CK-MB,[4]; day 21,significant increase
same,plasma triglyceride levels,[4]; day 21 and day 42,significantly elevated
same,congestive heart failure incidence,[5]; lifetime cumulative doxorubicin exposure limited to 400-450 mg/m^2,less than 58
same,incidence of congestive heart failure,[5]; patients received doxorubicin at 400 mg/m^2,4.78
same,incidence of congestive heart failure,[5]; patients received doxorubicin at 550 mg/m^2,26%
same,incidence of congestive heart failure,[5]; patients received doxorubicin at 700 mg/m^2,48%
same,heart E/A ratio,[6]; [7],significant cardiotoxic effects
same,left ventricular fractional shortening,[6]; [7],significant cardiotoxic effects
same,cardiac output,[6]; [8],significant cardiotoxic effects
same,left ventricular diastolic function,[6]; [8],significant cardiotoxic effects
same,left ventricular dilatation,[6]; [8],significant cardiotoxic effects
same,cardiac output,[6]; day 21,not significantly so
same,left ventricular diastolic function,[6]; day 21,not significantly so
same,left ventricular dilatation,[6]; day 21,not significantly so
